In one assay the target is Adenosine A2 receptor (Rattus norvegicus, UniProt P29276+P30543). As to the kind of experiment: Binding affinity towards adenosine A2 receptor was determined using radioligand [3H]NECA in rat brain striatum at 25 degree C. Format: tissue-based.
Another assay deals with T1, Adenosine receptor A1 (Rattus norvegicus, UniProt P25099).
T1 sequence (P25099 whole entry): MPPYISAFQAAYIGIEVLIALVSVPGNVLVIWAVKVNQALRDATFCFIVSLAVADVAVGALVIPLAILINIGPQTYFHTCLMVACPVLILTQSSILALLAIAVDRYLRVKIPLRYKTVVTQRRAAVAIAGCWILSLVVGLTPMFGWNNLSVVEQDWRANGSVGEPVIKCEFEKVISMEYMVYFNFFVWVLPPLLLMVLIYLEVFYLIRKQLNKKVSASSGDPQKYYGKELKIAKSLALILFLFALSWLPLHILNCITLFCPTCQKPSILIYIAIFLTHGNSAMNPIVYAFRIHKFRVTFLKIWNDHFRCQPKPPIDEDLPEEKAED
As to the kind of experiment: Binding affinity towards adenosine A1 receptor was determined using radioligand [3H]CHA in whole rat brain membranes at 25 degree C. It is filed as cell membranes.

The target of assay [1] is Adenosine receptors; A1 & A2 (Rattus norvegicus) (UniProt P29276+P25099+P30543). In words: Selectivity as ratio of Ki against A2 and A1 receptors. Format: protein assay.

On to `CCCn1c(=O)c2nc([C@@H](C)c3ccccc3)[nH]c2n(CCC)c1=O`, for which the Ki (commonly the equilibrium dissociation constant of an inhibitor or competing ligand from its target) on Adenosine A2 receptor was 12.9 µM.
Consider `CCCn1c(=O)c2nc([C@@H](CC)c3ccccc3)[nH]c2n(CCC)c1=O`, for which the Ki on Adenosine A2 receptor was found to be 7.5 µM; on Adenosine receptor A1 it was 0.136 µM. For the same compound, the Ratio in assay [1] was determined as 55.
As to `CCCn1c(=O)c2nc([C@H](CC)c3ccccc3)[nH]c2n(CCC)c1=O`, at Adenosine A2 receptor, the inhibition constant Ki turned out to be 3.51 µM. In assay [1], the Ratio worked out at 153.
As for `CCCn1c(=O)c2nc(C(CO)Cc3ccccc3)[nH]c2n(CCC)c1=O` (centres undefined), the inhibition constant Ki on Adenosine A2 receptor stood at 12.8 µM.
Regarding `CCCn1c(=O)c2nc(C(C)c3ccccc3)[nH]c2n(CCC)c1=O` (centres undefined), the Ki on Adenosine A2 receptor was 4.9 µM.
The compound `CCCn1c(=O)c2nc([C@H](C)c3ccccc3)[nH]c2n(CCC)c1=O` yielded an inhibition constant (Ki) on Adenosine A2 receptor of 4.22 µM.
As to `CCCn1c(=O)c2nc(C(CC)Cc3ccccc3)[nH]c2n(CCC)c1=O` (centres undefined), the Ki at Adenosine A2 receptor was 1.23 µM. Compared with the last compound, the Ki is about 3.4-fold lower.
As to `CCCn1c(=O)c2nc(CC(C)c3ccccc3)[nH]c2n(CCC)c1=O` (centres undefined), the Ki on Adenosine A2 receptor worked out at 1.74 µM. Also, in assay [1], the Ratio is 18.
Take `CCCn1c(=O)c2nc(C3CCc4ccccc4C3)[nH]c2n(CCC)c1=O` (centres undefined): the Ki on Adenosine A2 receptor was 10.3 µM.
On to `CCCn1c(=O)c2nc([C@H]3CCC[C@@H]3c3ccccc3)[nH]c2n(CCC)c1=O`, for which the inhibition constant (Ki) at Adenosine A2 receptor came to 2.72 µM. This Ki lies about 3.8-fold lower than the previous one.
The compound `CCCn1c(=O)c2nc(C3Cc4ccccc4C3)[nH]c2n(CCC)c1=O` registered a Ki on Adenosine A2 receptor of 8.35 µM.
In turn, `CCCC(Cc1ccccc1)c1nc2c(=O)n(CCC)c(=O)n(CCC)c2[nH]1` (centres undefined) registered an inhibitory constant (Ki) at Adenosine A2 receptor of 0.61 µM.
On to `CCCn1c(=O)c2nc(C(CC)c3ccccc3)[nH]c2n(CCC)c1=O` (centres undefined), for which the Ki worked out at 3.21 µM on Adenosine A2 receptor and 0.0335 µM at Adenosine receptor A1. Moreover, in assay [1], the Ratio stood at 95.

The record behind these values is ChEMBL document CHEMBL1126552 (J Med Chem, 1993).
